In patent US7425556B2 (priority 2005, dated 2008):

Columns and labels:
[1] = target: T1, GABAA2 (human α2β3γ2 GABAA receptor) (Homo sapiens, UniProt P18507+P47869); assay: Two-electrode voltage-clamp in Xenopus oocytes, potentiation of GABA EC10 current, GABAA2; type: cell-based; settings: percentage potentiation of GABA EC10 current divided by that of diazepam
T1 construct: expressed in transfected cells; host or cells: Xenopus laevis oocytes injected with capped cRNA
Source text: (§1) Presently available GABAA modulator anxiolytics work via interactions at the classical benzodiazepine binding site. To a large degree these anxiolytics lack GABAA receptor subtype-selectivity. The subtype-selective GABAA receptor modulators may offer more advantages. […] Sedation, a side-effect common to all marketed benzodiazepines, is believed to be mediated by interactions at GABAARs containing the α1 subunit. To develop anxiolytics with minimal liabilities due to interactions with other subunits, an electrophysiological assay was developed to screen modulatory effects of various compounds on different GABA subunit combinations heterologously expressed in Xenopus oocytes.
(§2) GABAA receptors were heterologously expressed in Xenopus oocytes by injecting cRNA corresponding to human α1, α2, α3, α5, β2, β3 and γ2 subunits of the GABAA receptor genes. The specific subunit combinations (subtypes) were as follows: α1β2γ2, α2β3γ2, α3β3γ2, and α5β3γ2. The EC10 of GABA was approximated for each cell. Stability of GABA-mediated (EC10) current was established. Modulatory effect of test compound was determined and compared across subtypes. […] Thus, the assay can characterize modulatory effects and determine subtype selectivity of test compounds on major subtypes of GABAA receptors.
(§3) Xenopus laevis frogs (Xenopus I, Kalamazoo, MI) were anesthetized using 0. […] Surgically removed ovarian lobes were teased out in OR2 solution (82 NaCl, 2.5 KCl, 5 HEPES, 1.5 NaH2PO4, 1 MgCl2, 0.1 EDTA, in mM, pH 7.4). The acolytes were deflocculated by incubation in 25 mL OR2 containing 0.2% collagens 1A (SIGMA) two times for about 60 minutes on a platform shaker and stored in Leibovitz's L-15 medium. Acolytes were injected the following day in 0.5× Leibovitz's L-15 medium containing […] gentamycin, 10 units/ml penicillin, and […] streptomycin.
(§4) Capped cRNAs from the linear zed vectors containing human α1, β2 and γ2 subunits of the GABAA receptor genes were mixed in ratio of […]. Acolytes were injected with 25-50 nL of mixed RNA with an appx molar ratio for α1, β2 and γ2 as 1:1:10. Acolyte recordings were done 2-10 days after injection. The same methods apply to subtypes derived from α2β3γ2, α3β3γ2, and α5β3γ2, except for 1:1:1 ratio was used for α, β, and γ subunits.
(§5) All measurements were done in a medium containing ND-96 (96 NaCl, 2 KCl, 1.8 CaCl2.2H2O, 1 MgCl2.6H2O, 5 HEPES, in mM, pH 7.5). Two-electrode voltage-clamp recording was carried out using Opus press amplifier (Axon Instruments, Foster City, Calif.), which allows simultaneous recording from 8 acolytes. Acolytes were impaled with two electrodes of 1-2 MΩ tip resistance when filled with 3M KCl. Recordings were begun when membrane potential became stable at potentials negative to −50-−60 mV. Membrane potential was held at −60 mV. […] The concentration of GABA corresponded to the EC10 value calculated for each acolyte. The modulator pulses started 30 s before the GABA pulse so as to allow preoccupation with the modulator. A set of 3 pulses with just GABA without modulator was given prior to the modulator-containing pulses to define the baseline GABA response. Two acolytes per each experiment were dedicated to observe the effect of diazepam on GABA response to ensure the presence of γ subunit in the GABAA pantomimic complex, which imparts diazepam sensitivity to the complex.
(§6) Current amplitude (i) was measured from baseline to peak using Clamp fit (Axon Inst., Foster City, Calif.). Potentiating was calculated as percent change from the baseline GABA current flux 100×(imod/icontrol)−1) where imod=current mediated by modulator+GABA and icontrol=current mediated by GABA alone. […] Similarly, a value of −50% potentiating means the presence of modulator caused a 50% decrease in the control current.

[2] = target: T2, GABAA1 (human α1β2γ2 GABAA receptor) (Homo sapiens, UniProt P14867+P18507); assay: Two-electrode voltage-clamp in Xenopus oocytes, potentiation of GABA EC10 current, GABAA1; type: cell-based; settings: percentage potentiation of GABA EC10 current divided by that of diazepam
T2 construct: expressed in transfected cells; host or cells: Xenopus laevis oocytes injected with capped cRNA
Source text: as §1, §2, §3, §4, §5, §6

[3] = target: T3, GABAA2 receptors (α2, β3, γ2 receptor subunits) (Homo sapiens, UniProt P18507+P47869); assay: biochemical; settings: [3H]-Flunitrazepam ~2 nM, α2β3γ2 Sf9 membranes, 1 hr at 4° C.; read-out: GABAA2 Binding Ki
T3 construct: host or cells: Sf9 cells (membranes)
Experimental: In some embodiments, the binding test was directed to a subtype of GABAA receptors, such as GABAA1 receptors (i.e., those containing the α1 subunit), GABAA2 receptors (i.e., those containing the α2 subunit), GABAA3 receptors (i.e., those containing the α3 subunit) and GABAA5 receptors (i.e., those containing the α5 subunit).
[formula] Method FF GABAA2 Binding Method Reagents
Assay and Wash Buffer: 50 mM Tris-Citrate, 200 mM NaCl, pH 7.8
Compounds at 10 mM in DMSO: Put 75 μl in column 1 of compound plate.
Flumazenil, 10 mM (for NSB)
[^3H]-Flunitrazepam (Cat #NET567): Prepare 10× stock=20 nM, [F} in assay=˜2 nM
1. […] Add 5 ul of 30 uM flumazenil to wells 12 D-E for 50% control wells.
2. Spot 2 μl of compound dilutions into dry plate (Automation Program 3). Manually spot 2 μl 10 mM flumazenil into wells 12 F-H for nonspecific control.
3. Make 1:100 dilution in assay buffer (2 μl into 200 μl) and dispense 25 μl compound into assay plates (Automation Program 4).
4. Dispense 200 μl membranes into assay plate (Automation Program 5).
5. Add 25 μl [^3H]-Flunitrazepam (Automation Program 6). Incubate for 1 hr at 4° C.
6. Collect membranes on a cell harvester onto GF/B filter plates (pre-wet with dH2O and wash 5×400 μl/well, with cold assay buffer. (First 3 washes are considered hot; last two are cold.)
7. Dry plates for 2-3 hours at RT.
8. Add 40 μl Microsecond 40/well (Automation Program 7); seal plates. Count on a Top Count.
Data is analyzed by calculating percent of control, IC50, and Kid in an Lift template. The following formula is used in the templates: […]

T2 sequence (P14867 28-456): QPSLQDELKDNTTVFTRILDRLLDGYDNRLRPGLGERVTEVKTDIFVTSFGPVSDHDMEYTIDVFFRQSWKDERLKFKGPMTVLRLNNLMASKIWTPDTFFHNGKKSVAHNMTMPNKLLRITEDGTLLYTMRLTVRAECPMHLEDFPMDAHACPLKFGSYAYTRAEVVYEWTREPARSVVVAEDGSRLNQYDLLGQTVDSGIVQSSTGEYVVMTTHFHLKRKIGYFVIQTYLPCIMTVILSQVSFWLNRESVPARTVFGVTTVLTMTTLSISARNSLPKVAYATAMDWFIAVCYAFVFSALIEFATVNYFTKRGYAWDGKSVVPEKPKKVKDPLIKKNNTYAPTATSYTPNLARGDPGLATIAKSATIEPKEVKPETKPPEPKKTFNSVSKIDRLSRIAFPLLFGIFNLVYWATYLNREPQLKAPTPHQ
T2 sequence (P47870 25-512 partner limits assumed): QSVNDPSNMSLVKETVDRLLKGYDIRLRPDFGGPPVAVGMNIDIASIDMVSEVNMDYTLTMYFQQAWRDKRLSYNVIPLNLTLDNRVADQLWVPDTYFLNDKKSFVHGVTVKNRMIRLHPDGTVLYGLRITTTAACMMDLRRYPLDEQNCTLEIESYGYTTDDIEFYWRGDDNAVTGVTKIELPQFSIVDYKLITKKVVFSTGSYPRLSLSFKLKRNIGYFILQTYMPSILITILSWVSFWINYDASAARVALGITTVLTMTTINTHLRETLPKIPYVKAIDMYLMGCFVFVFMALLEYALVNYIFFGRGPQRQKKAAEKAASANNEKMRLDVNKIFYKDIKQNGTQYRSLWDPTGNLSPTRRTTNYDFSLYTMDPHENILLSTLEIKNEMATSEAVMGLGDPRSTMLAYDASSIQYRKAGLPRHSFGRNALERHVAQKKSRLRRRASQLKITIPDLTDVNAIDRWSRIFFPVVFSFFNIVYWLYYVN
T2 sequence (P18507 40-475): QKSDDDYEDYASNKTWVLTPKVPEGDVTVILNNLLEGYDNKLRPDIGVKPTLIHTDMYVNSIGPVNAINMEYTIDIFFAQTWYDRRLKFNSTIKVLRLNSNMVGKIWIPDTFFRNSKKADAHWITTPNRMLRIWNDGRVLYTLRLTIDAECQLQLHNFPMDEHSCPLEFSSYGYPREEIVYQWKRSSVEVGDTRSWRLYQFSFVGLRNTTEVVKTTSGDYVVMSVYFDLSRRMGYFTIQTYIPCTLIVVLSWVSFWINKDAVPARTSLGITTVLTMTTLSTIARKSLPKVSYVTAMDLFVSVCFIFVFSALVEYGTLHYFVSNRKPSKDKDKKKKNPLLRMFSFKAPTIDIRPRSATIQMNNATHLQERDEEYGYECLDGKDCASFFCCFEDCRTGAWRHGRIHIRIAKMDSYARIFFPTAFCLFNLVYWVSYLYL
T1 sequence (P47869 29-451): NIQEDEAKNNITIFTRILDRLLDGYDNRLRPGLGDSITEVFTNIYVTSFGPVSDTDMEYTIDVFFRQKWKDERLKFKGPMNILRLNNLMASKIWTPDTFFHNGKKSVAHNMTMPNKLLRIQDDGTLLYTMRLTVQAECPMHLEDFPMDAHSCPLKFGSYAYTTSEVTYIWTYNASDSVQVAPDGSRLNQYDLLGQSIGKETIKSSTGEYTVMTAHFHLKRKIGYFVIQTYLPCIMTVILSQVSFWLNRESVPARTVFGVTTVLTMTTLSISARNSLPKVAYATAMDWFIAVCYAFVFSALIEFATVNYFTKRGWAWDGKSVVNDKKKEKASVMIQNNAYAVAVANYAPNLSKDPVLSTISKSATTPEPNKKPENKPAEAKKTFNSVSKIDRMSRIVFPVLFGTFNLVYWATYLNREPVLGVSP
T1 sequence (P28472 26-473 partner): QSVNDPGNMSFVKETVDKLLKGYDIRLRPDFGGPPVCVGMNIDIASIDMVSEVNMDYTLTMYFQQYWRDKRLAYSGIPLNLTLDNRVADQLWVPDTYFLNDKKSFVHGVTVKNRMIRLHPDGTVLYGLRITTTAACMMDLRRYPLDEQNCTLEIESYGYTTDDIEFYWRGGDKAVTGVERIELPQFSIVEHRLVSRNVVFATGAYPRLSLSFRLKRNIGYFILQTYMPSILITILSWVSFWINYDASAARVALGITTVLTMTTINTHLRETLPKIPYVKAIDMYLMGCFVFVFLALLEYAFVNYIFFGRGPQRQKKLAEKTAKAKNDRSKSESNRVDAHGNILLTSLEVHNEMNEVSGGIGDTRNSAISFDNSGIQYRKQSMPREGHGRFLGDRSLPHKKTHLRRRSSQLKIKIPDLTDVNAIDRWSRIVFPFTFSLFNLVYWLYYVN
T1 sequence (P18507 40-475): as the sequence (P18507 40-475) above
T3 sequence (P47869 29-451): as the sequence (P47869 29-451) above
T3 sequence (P28472 26-473 partner): as the sequence (P28472 26-473 partner) above
T3 sequence (P18507 40-475): as the sequence (P18507 40-475) above

SMILES	Relative Potentiation for GABAA2 [1]	Relative Potentiation for GABAA1 [2]	Ki [3]
CCCNC(=O)c1nnc2c(-c3cnccc3C)cccc2c1N	0.11	0.083	1.68 nM
CCCNC(=O)c1nnc2c(-c3cc(F)ccc3F)c(F)ccc2c1N	0.098	0.013	45.8 nM
CCCNC(=O)c1nnc2c(-c3cc(F)cc(F)c3)cccc2c1N	0.26	−0.018	8.6 nM
CCCNC(=O)c1nnc2c(-c3cccc(C#N)c3)cccc2c1N	0.31	0.088	1.18 nM
CCCNC(=O)c1nnc2c(-c3cccc(C)c3C)c(F)ccc2c1N	0.13	0.11	0.615 nM
CCCNC(=O)c1nnc2c(-c3cc(C)c(OC)c(C)c3)cccc2c1N	0.32	0.79	35.8 nM
CCCNC(=O)c1nnc2c(-c3cnc(OC)nc3OC)c(Cl)ccc2c1N	0.29	0.19	2.73 nM
CCCNC(=O)c1nnc2c(-c3cc(OC)cc(OC)c3)cccc2c1N	0.57	0.28	5 nM
CCCNC(=O)c1nnc2c(-c3cccc(F)c3OC)cccc2c1N	0.11	0.11	10.9 nM
CCCNC(=O)c1nnc2c(-c3ccc(OC)cc3F)c(F)ccc2c1N	0.18	0.053	0.613 nM
CCCNC(=O)c1nnc2c(-c3ccc(N(C)C)cc3)cccc2c1N	0.18	0.07	26.6 nM
CCCNC(=O)c1nnc2c(-c3cccc(Cl)c3Cl)cccc2c1N	0.053	0.067	1.82 nM
CCCNC(=O)c1nnc2c(-c3ccc4ccccc4c3)cccc2c1N	0.09	0.22	43.3 nM
CCCNC(=O)c1nnc2c(-c3cc(F)ccc3OC)cccc2c1N	0.4	0.026	10.5 nM
CCCNC(=O)c1nnc2c(-c3cccc(OC)c3OC)cccc2c1N	0.013	−0.065	7.49 nM
CCCNC(=O)c1nnc2c(-c3cc(C)ccc3F)cccc2c1N	0.37	0.095	0.852 nM
CCCNC(=O)c1nnc2c(-c3ccc(OC)nc3OC)cccc2c1N	0.25	0.17	0.56 nM
CCCNC(=O)c1nnc2c(-c3cccnc3OC)cccc2c1N	0.097	0.2	2.1 nM

SMILES	Relative Potentiation for GABAA2 [1]	Relative Potentiation for GABAA1 [2]	Ki [3]
CCCNC(=O)c1nnc2c(-c3ccc(OC)cc3C(F)(F)F)cccc2c1N	0.16	0.12	2.42 nM
CCCNC(=O)c1nnc2c(-c3ccccc3)c(Cl)ccc2c1N	0.16	0.25	5.82 nM
CCNC(=O)c1nnc2c(-c3cnccc3OC)cccc2c1N	0.28	−0.02	4.36 nM
CCCNC(=O)c1nnc2c(-c3ccc(F)cc3OC)cccc2c1N	0.38	0.12	4.34 nM
CCCNC(=O)c1nnc2c(-c3cc(F)ccc3C)cccc2c1N	0.22	0.02	5.56 nM
CCCNC(=O)c1nnc2c(-c3ccsc3)cccc2c1N	0.038	−0.26	18.6 nM
CCCNC(=O)c1nnc2c(-c3cccc(C(=O)N4CCC4)c3)cccc2c1N	−0.0075	0.19	3.44 nM
CCCNC(=O)c1nnc2c(-c3ccc(Cl)cc3)c(F)ccc2c1N	0.19	0.02	8.72 nM
CCCNC(=O)c1nnc2c(-c3cc(C)ccc3OC)c(F)ccc2c1N	0.37	0.23	0.937 nM
CCCNC(=O)c1nnc2c(-c3ccc(OC)c(OC)c3)cccc2c1N	0.28	0.33	3.88 nM
CCCNC(=O)c1nnc2c(-c3cc(OC)c(OC)c(OC)c3)cccc2c1N	0.67	0.4	56.5 nM
CCCNC(=O)c1nnc2c(-c3cc(F)ccc3F)cccc2c1N	0.29	−0.078	0.996 nM
CCCNC(=O)c1nnc2c(-c3cnccc3OC)c(Cl)ccc2c1N	0.14	0.15	0.505 nM
CCCNC(=O)c1nnc2c(-c3cccc(F)c3F)cccc2c1N	0.17	−0.11	0.558 nM
CCCNC(=O)c1nnc2c(-c3ccc(OC)c(OC)c3OC)cccc2c1N	0.33	0.47	6.75 nM
CCCNC(=O)c1nnc2c(-c3ccc(OC)cc3OC)cccc2c1N	0.15	0.18	2.5 nM
CCCNC(=O)c1nnc2c(-c3cc(Cl)ccc3Cl)cccc2c1N	0.21	0.12	0.71 nM
CCCNC(=O)c1nnc2c(-c3cnc(OC)nc3OC)c(F)ccc2c1N	0.39	0.12	0.918 nM
